Common to all, as to format: biochemical
In assay [1] the target is T1, purified human Factor XIa (Homo sapiens, UniProt P03951).
T1 construct: purchased Haematologic Technologies
Description: Factor XIa enzyme inhibition assay (chromogenic substrate S-2366), Ki. The note with it: substrate S-2366, pH 7.4. The essentials: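 Purified human Factor XIa ([…] final) with chromogenic substrate S-2366 (0.0002-0.001 M) in 50 mM HEPES pH 7.4, 145 mM NaCl, 5 mM KCl, 0.1% PEG 8000. Velocities measured over 20-180 minutes with and without inhibitor; Ki derived assuming competitive inhibition, e.g. Ki=IC50/(1+S/Km).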

Assay [2] concerns the target T2, purified human plasma kallikrein (Homo sapiens, UniProt P03952).
T2 construct: purchased Enzyme Research Laboratories
Nature of the assay: Plasma kallikrein enzyme inhibition assay (chromogenic substrate S-2302), Ki. The note with it: substrate S-2302, pH 7.5. How it is done: The effectiveness of compounds of the present invention as inhibitors of the coagulation Factors XIa, VIIa, IXa, Xa, XIIa, plasma kallikrein, thrombin, chemytrypsin or trypsin can be determined using a relevant purified serine protease, respectively, and an appropriate synthetic substrate. The rate of hydrolysis of the chromogenic or fluorogenic substrate by the relevant serine protease was measured both in the absence and presence of compounds of the present invention. […] A decrease in the rate of absorbance or fluorescence change in the presence of inhibitor is indicative of enzyme inhibition. Such methods are known to one skilled in the art. The results of this assay are expressed as the inhibitory constant, Ki.
Plasma kallikrein determinations were made in 0.1 M sodium phosphate buffer at a pH of 7.5 containing 0.1-0.2 M sodium chloride and 0.5% PEG 8000. Determinations were made using purified human plasma kallikrein (Enzyme Research Laboratories) at a final assay concentration of […] and the synthetic substrate S-2302 (H-(D)-Pro-Phe-Arg-pNA; CHROMOGENIX®) at a concentration of 0.00008-0.0004 M.
Values of Ki were determined by allowing the protease to react with the substrate in the presence of the inhibitor. Reactions were allowed to go for periods of 20-180 minutes (depending on the protease) and the velocities (rate of absorbance or fluorescence change versus time) were measured. The following relationships were used to calculate Ki values: (Vmax*S)/(Km+S) (vo−vs)/vs=I/(Ki*(1+S/Km)) for a competitive inhibitor with one binding site; or vs/vo=A+(B−A)/(1+(IC50/(I)^n)); and Ki=IC50/(1+S/Km) for a competitive inhibitor where: […]

Assay [3] relates to citrated normal human plasma. Description: Activated Partial Thromboplastin Time (aPTT) plasma clotting assay. The following applies: inhibitor concentration required to increase the clotting time by 1.5 times. An excerpt:
The effectiveness of compounds of the present invention as inhibitors of coagulation can be determined using a standard or modified clotting assay. An increase in the plasma clotting time in the presence of inhibitor is indicative of anticoagulation. Relative clotting time is the clotting time in the presence of an inhibitor divided by the clotting time in the absence of an inhibitor. The results of this assay may be expressed as IC1.5× or IC2×, the inhibitor concentration required to increase the clotting time by 1.5 times or 2 times, respectively, relative to the clotting time in the absence of the inhibitor. The IC1.5× or IC2× is found by linear interpolation from relative clotting time versus inhibitor concentration plots using inhibitor concentrations that span the IC1.5× or IC2×.
Clotting times are determined using citrated normal human plasma as well as plasma obtained from a number of laboratory animal species (e.g., rat, or rabbit). A compound is diluted into plasma beginning with a 10 mM DMSO stock solution. The final concentration of DMSO is less than 2%. Plasma clotting assays are performed in an automated coagulation analyzer (Sysmex, Dade-Behring, Illinois). Similarly, clotting times can be determined from laboratory animal species or humans dosed with compounds of the invention.
Activated Partial Thromboplastin Time (aPTT) is determined using ACTIN® FSL (Dade-Behring, Illinois) following the directions in the package insert. Plasma (0.05 mL) is warmed to 37° C. for 1 minute. ACTIN® FSL (0.05 mL) is added to the plasma and incubated for an additional 2 to 5 minutes. Calcium chloride (25 mM, 0.05 mL) is added to the reaction to initiate coagulation. The clotting time is the time in seconds from the moment calcium chloride is added until a clot is detected.

Molecules are shown by their SMILES.

T1 sequence (P03951 388-625 limits assumed): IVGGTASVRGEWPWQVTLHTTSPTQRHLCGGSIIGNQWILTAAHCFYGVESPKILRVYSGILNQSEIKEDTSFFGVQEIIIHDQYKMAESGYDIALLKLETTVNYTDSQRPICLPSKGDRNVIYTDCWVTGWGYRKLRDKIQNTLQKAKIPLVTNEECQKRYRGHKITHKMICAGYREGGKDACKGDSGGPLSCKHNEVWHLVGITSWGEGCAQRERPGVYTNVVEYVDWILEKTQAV
T1 sequence (P03951 19-387 partner limits assumed): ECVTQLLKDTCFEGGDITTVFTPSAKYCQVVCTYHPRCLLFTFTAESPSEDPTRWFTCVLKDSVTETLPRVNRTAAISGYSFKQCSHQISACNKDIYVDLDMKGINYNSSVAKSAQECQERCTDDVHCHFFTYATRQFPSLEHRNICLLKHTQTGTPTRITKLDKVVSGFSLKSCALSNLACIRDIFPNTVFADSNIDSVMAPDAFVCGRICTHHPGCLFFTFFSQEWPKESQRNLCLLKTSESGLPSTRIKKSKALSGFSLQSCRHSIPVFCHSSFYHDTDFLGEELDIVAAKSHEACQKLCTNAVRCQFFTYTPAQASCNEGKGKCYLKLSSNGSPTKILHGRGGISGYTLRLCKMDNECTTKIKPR
T2 sequence (P03952 391-638 limits assumed): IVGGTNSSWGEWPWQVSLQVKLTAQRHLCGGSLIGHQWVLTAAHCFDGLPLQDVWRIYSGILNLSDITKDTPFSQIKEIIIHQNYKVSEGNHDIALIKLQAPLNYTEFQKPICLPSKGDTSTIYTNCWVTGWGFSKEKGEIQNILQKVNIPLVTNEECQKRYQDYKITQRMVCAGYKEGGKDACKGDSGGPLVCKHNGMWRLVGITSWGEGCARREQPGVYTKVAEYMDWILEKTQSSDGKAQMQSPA
T2 sequence (P03952 20-390 partner limits assumed): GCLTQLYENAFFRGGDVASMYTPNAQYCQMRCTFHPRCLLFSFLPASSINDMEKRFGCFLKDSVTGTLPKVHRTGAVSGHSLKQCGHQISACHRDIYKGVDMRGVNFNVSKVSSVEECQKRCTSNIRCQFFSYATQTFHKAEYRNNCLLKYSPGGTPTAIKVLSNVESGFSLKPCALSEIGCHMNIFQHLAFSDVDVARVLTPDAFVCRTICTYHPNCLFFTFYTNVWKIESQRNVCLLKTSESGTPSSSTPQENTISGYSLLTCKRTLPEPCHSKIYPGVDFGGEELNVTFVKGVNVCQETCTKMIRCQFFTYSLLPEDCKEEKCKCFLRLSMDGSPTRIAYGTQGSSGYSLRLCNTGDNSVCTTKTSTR

What is called Ki is a measure of affinity in units of concentration, obtained from inhibition or displacement. Read a high Ki as weaker binding. Consider `O=C(O)c1ccc(NC(=O)[C@H](Cc2ccccc2)n2cnc(-c3c(-n4cc(Cl)nn4)ccc(Cl)c3F)cc2=O)cc1` [Example 9, (S)-4-(2-(4-(3-chloro-6-(4-chloro-1H-1,2,3-triazol-1-yl)-2-fluorophenyl)-6-oxopyrimidin-1(6H)-yl)-3-phenylpropanamido)benzoic Acid], for which the Ki in assay [1] was found to be 0.64 nM; in assay [2] it was 36 nM. Further, the “aPTT (IC1.5×)” value in assay [3] was found to be 0.91 µM.

For `O=C(O)c1ccc(NC(=O)[C@H](Cc2ccccc2)n2cnc(-c3cc(Cl)ccc3-n3cc(C(F)(F)F)nn3)cc2=O)cc1` [Example 14, (S)-4-(2-(4-(5-chloro-2-(4-(trifluoromethyl)-1H-1,2,3-triazol-1-yl)phenyl)-6-oxopyrimidin-1(6H)-yl)-3-phenylpropanamido)benzoic Acid], the Ki in assay [1] turned out to be 3.1 nM; in assay [2], 239 nM. For the same compound, in assay [3], the “aPTT (IC1.5×)” value stood at 1.85 µM.

As to `O=C(O)c1ccc(NC(=O)[C@H](Cc2ccccc2)n2cnc(-c3cc(Cl)ccc3-n3cc(Cl)nn3)cc2=O)cc1` [Example 15, (S)-4-(2-(4-(5-chloro-2-(4-chloro-1H-1,2,3-triazol-1-yl)phenyl)-6-oxopyrimidin-1(6H)-yl)-3-phenylpropanamido)benzoic Acid], the Ki in assay [1] was determined as 2.5 nM; in assay [2] it was 189 nM. Moreover, the “aPTT (IC1.5×)” value in assay [3] worked out at 1.74 µM.

Take `O=C(Nc1ccc2cn[nH]c2c1)[C@H](Cc1ccccc1)n1cnc(-c2cc(Cl)ccc2-n2cc(Cl)nn2)cc1=O` [Example 17, (S)-2-(4-(5-chloro-2-(4-chloro-1H-1,2,3-triazol-1-yl)phenyl)-6-oxopyrimidin-1(6H)-yl)-N-(1H-indazol-6-yl)-3-phenylpropanamide]: the Ki in assay [1] was 16 nM; in assay [2], 166 nM. Besides, in assay [3], the “aPTT (IC1.5×)” value was determined as 17.6 µM.

In the case of `O=C1Cc2cc(NC(=O)[C@H](Cc3ccccc3)n3cnc(-c4cc(Cl)ccc4-n4cc(Cl)nn4)cc3=O)ccc2N1` [Example 23, (S)-2-(4-(5-chloro-2-(4-chloro-1H-1,2,3-triazol-1-yl)phenyl)-6-oxopyrimidin-1(6H)-yl)-N-(2-oxoindolin-5-yl)-3-phenylpropanamide], the Ki in assay [1] came out at 6.6 nM. The “aPTT (IC1.5×)” value in assay [3] turned out to be 8.0 µM.

Take `O=C(Nc1ccc2nccnc2c1)[C@H](Cc1ccccc1)n1cnc(-c2cc(Cl)ccc2-n2cc(Cl)nn2)cc1=O` [Example 30, (S)-2-(4-(5-chloro-2-(4-chloro-1H-1,2,3-triazol-1-yl)phenyl)-6-oxopyrimidin-1(6H)-yl)-3-phenyl-N-(quinoxalin-6-yl)propanamide]: the Ki in assay [1] turned out to be 6.44 nM. Besides, the “aPTT (IC1.5×)” value in assay [3] worked out at 15.2 µM.

In assay [1], `O=C(Nc1ccc2c(=O)[nH]ccc2c1)[C@H](Cc1ccccc1)n1cnc(-c2cc(Cl)ccc2-n2cc(Cl)nn2)cc1=O` [Example 96, (S)-2-(4-(5-chloro-2-(4-chloro-1H-1,2,3-triazol-1-yl)phenyl)-6-oxopyrimidin-1(6H)-yl)-N-(1-oxo-1,2-dihydroisoquinolin-6-yl)-3-phenylpropanamide] showed a Ki of 19.8 nM. Besides, the “aPTT (IC1.5×)” value in assay [3] came out at 13.6 µM.

Regarding `N#Cc1ccc(Cl)c(F)c1C1=CC(=O)N(C(Cc2ccccc2)C(=O)Nc2ccc(C(=O)O)cc2)CC1` (stereo not shown) [Example 130, 4-{2-[4-(3-Chloro-6-cyano-2-fluorophenyl)-6-oxo-1,2,3,6-tetrahydropyridin-1-yl]-3-phenylpropanamido}benzoic Acid], the Ki in assay [1] stood at 12.8 nM. In addition, in assay [3], the “aPTT (IC1.5×)” value came to 17.5 µM.

For the compound `Cc1c(CC(C(=O)Nc2ccc(C(=O)O)cc2)N2CCC(c3c(F)ccc(Cl)c3F)=CC2=O)ccc2cn[nH]c12` (stereo not shown) [Example 135, 4-(2-(4-(3-chloro-2,6-difluorophenyl)-6-oxo-3,6-dihydropyridin-1(2H)-yl)-3-(7-methyl-1H-indazol-6-yl)propanamido)benzoic Acid], the values for the Ki in assay [1] and in assay [2] were 199 nM and 1870 nM, respectively. The “aPTT (IC1.5×)” value in assay [3] is 1.74 µM.

For `O=C(O)c1ccc(NC(=O)[C@H](Cc2ccc(NC(=O)C3CC3)cc2)N2CCC(c3cc(Cl)ccc3-n3cc(Cl)nn3)=CC2=O)cc1` [Example 141, (S)-4-(2-(4-(5-chloro-2-(4-chloro-1H-1,2,3-triazol-1-yl)phenyl)-6-oxo-3,6-dihydropyridin-1(2H)-yl)-3-(4-(cyclopropanecarboxamido)phenyl)propanamido)benzoic Acid], affinity in assay [1] was put at a Ki of 0.92 nM. The “aPTT (IC1.5×)” value in assay [3] stood at 2.05 µM.

In assay [1], `O=C(O)c1ccc(NC(=O)[C@H](Cc2ccccc2)N2CCC(c3cc(Cl)ccc3-n3cc(Cl)nn3)=CC2=O)cc1` [Example 142, (S)-4-(2-(4-(5-chloro-2-(4-chloro-1H-1,2,3-triazol-1-yl)phenyl)-6-oxo-3,6-dihydropyridin-1(2H)-yl)-3-phenylpropanamido)benzoic Acid] registered a Ki of 1.73 nM. Besides, the “aPTT (IC1.5×)” value in assay [3] was found to be 2.39 µM.

As for `O=C(O)c1ccc(NC(=O)[C@H](Cc2ccccc2)n2ncc(-c3cc(Cl)ccc3-n3cc(C(F)(F)F)nn3)cc2=O)cc1` [Example 143, 4-[(2S)-2-(4-{5-Chloro-2-[4-(trifluoromethyl)-1H-1,2,3-triazol-1-yl]phenyl}-6-oxo-1,6-dihydropyridazin-1-yl)-3-phenyl-propanamido]benzoic Acid], the Ki is 5.5 nM in assay [1] and 569 nM in assay [2].

For the compound `O=C(O)c1ccc(NC(=O)[C@H](Cc2ccccc2)n2ncc(-c3c(F)ccc(Cl)c3F)cc2=O)cc1` [Example 144, 4-[(2S)-2-[4-(3-Chloro-2,6-difluorophenyl)-6-oxo-1,6-dihydropyridazin-1-yl]-3-phenylpropanamido]benzoic Acid], the Ki in assay [1] was found to be 1030 nM; in assay [2], 6900 nM.

The values above are taken from patent US10336730B2, “Substituted glycine derived FXIA inhibitors” (BRISTOL-MYERS SQUIBB COMPANY, priority 2015, dated 2019).
